Assay results as given in PMC4658274 (The Analyst, 2015).
pIC50, pKi: −log10 of the molar value.

Biological target: hERG potassium channel (Homo sapiens, UniProt Q12809)
Test: radio-ligand competitive binding assay

Sequence of hERG potassium channel (Q12809 whole entry): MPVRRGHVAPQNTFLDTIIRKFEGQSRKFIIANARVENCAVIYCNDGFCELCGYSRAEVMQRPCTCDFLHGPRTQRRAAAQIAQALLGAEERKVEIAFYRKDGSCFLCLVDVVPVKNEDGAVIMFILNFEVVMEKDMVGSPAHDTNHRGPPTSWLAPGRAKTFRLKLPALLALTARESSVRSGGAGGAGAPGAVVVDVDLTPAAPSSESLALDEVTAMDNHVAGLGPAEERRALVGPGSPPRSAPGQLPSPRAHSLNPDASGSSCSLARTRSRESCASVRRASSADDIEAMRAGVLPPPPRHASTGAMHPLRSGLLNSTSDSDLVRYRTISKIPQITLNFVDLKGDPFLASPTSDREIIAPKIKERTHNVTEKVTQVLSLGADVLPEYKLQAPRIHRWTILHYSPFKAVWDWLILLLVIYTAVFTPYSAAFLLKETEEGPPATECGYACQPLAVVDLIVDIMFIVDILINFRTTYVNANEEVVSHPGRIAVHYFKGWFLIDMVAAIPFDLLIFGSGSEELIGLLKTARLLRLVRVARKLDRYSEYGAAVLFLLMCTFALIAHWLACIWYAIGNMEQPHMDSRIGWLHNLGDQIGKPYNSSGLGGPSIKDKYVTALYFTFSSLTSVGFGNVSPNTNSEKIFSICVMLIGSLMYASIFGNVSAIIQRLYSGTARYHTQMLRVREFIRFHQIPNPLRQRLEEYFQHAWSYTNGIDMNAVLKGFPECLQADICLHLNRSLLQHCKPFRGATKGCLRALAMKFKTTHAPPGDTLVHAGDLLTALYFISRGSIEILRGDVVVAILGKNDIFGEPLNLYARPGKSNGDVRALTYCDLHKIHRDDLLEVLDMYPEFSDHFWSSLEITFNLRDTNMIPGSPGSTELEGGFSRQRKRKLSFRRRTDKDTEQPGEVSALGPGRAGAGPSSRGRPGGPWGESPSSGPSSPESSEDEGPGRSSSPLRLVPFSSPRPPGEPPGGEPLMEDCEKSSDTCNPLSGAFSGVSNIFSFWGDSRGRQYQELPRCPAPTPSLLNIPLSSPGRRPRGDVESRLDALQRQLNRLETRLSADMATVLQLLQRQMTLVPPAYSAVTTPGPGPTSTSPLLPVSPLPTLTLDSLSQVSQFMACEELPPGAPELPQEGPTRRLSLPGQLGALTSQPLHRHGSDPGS

For `CN1CCN(CCCCN2C(=O)CN(/N=C/c3ccc(-c4ccc(Cl)cc4)o3)C2=O)CC1` [Azimilide], the pIC50 was 5.72 and the pKi was 6.02.
